Here are results for 45 compounds from patent US6562387B2, “Ambient stable beverage and process of making” (priority 2000, dated 2003).

Values after ≈ are worked out from the molar mass of the structure shown. Where two headings read alike, the source gives them in different places.

Series [1] can be described thus: Minimum inhibitory concentration (MIC) of antimicrobials / essential oils. Format: cell-based. The source says:
The minimum inhibitory concentration (MIC) is given for each compound.
In each case the respective minimum inhibitory concentration (MIC) and their specific preferred concentration is also given.

In series [2] the test system is yeast Saccharomyces cerevisiae X2180-1B. As to conditions: RTD tea pH 3.4, 1-175 ppm cinnamic acid, 1-250 ppm DMDC, 14 days at 25° C.
Method: Tubes were inoculated with 10^4cells of the yeast Saccharomyces cerevisiae X2180-1B. Immediately following inoculation, dimethyl dicarbonate, DMDC was added at concentrations ranging from 1-250 ppm.
Tubes were inoculated with 10^4 cells of the yeast Saccharomyces cerevisiae X2180-1B. Immediately following inoculation, dimethyl dicarbonate, DMDC was added at concentrations ranging from 1-250 ppm.
The test system is the same in series [3]. Conditions: synthetic soft drink pH 3.4, 1-175 ppm cinnamic acid, 1-250 ppm DMDC, 14 days at 25° C.
Method: Synthetic soft drink contained glucose, 8%w/v, citric acid 3 g/l, potassium orthophosphate 1 g/l, magnesium chloride 0.1 g/g and yeast extract 0.1 g/l. […] Tubes were inoculated with 10^4 cells of the yeast Saccharomyces cerevisiae X2180-1B. Immediately following inoculation, dimethyl dicarbonate, DMDC was added at concentrations ranging from 1-250 ppm.
The test system of another series is mould. Conditions: cited from earlier work.
For series [4] the following is noted: cited from earlier work.
The mark [5] stands for this setting: Table I, preferred essential oils, test organism not given, read-out: MIC (ppm).
The mark [6] stands for this setting: Table II, particularly preferred essential oils, test organism not given.
Setting [7] is: 25 ppm citral dimethyl acetal together with 35 ppm cumic alcohol.
The mark [8] stands for this setting: 100 ppm essential oil component.
Setting [9] is: Table I, preferred essential oils, test organism not given.

Usually MIC stands for the lowest concentration that inhibits growth of the organism.

`CCCCCCCCO` [1-Octanol]: in series [1] (setting [5]), the MIC came to 247 µg/mL (≈ 1900 µM).
Regarding `CC(=O)C(=O)c1ccccc1` [1-Phenyl-1,2-propanedione], the MIC in series [1] (setting [5]) was 222 µg/mL (≈ 1500 µM).
Still for that read-out and setting: the result for `CCCCCCCCCCCO` [1-Undecanol] reads 14 µg/mL (≈ 81.2 µM); that for `CC(=O)OCCC1CCCCC1` [2-Cyclohexylethyl acetate], 102 µg/mL; that for `CCC=C(C)C=O` [2-Methyl-2-pentenal], 1270 µg/mL (≈ 13000 µM).
`CC(C)CCCC(C)CCO` (stereo not drawn) [3,7-Dimethyl-1-octanol]: the MIC in series [1] (setting [5]) turned out to be 15.8 µg/mL (≈ 99.8 µM). In addition, the “MIC (ppm)” value in series [1] (setting [6]) was determined as 15.8 ppm. Also, in series [2] (50 ppm essential oil component), the “tubes supporting yeast growth, comparison with control FIG. 1” value is “very substantially fewer tubes supporting yeast growth”. Moreover, the “tubes supporting yeast growth, comparison with control FIG. 11” value in series [3] (50 ppm essential oil component) is recorded as “very substantially fewer tubes supporting yeast growth”.
In the case of `CC(=O)OCCc1scnc1C` [4-Methyl-5-thiazoleethanol acetate], the MIC in series [1] (setting [5]) came to 1110 µg/mL.
As for `CC(C)(C)C1CCC(=O)CC1` [4-tert-Butylcyclohexanone], the MIC in series [1] (setting [5]) was 462 µg/mL (≈ 3000 µM).
Take `CC(C)CC=C(C=O)c1ccccc1` [5-Methyl-2-phenyl-2-hexenal]: the MIC in series [1] was 162 µg/mL (≈ 860 µM).
For `O=C(OCc1ccccc1)c1ccc(O)cc1` [Benzyl-4-hydroxybenzoate], the MIC in series [1] (setting [5]) was 68 µg/mL (≈ 298 µM).
Same read-out and setting: the result for `C=C(C)C1CC=C(C)C(=O)C1` (stereo not drawn) [Carvone] reads 300 µg/mL (≈ 2000 µM); that for `O=CC=Cc1ccccc1` [Cinnamaldehyde], 66 µg/mL (≈ 499 µM).
As to `COC(C=C(C)CCC=C(C)C)OC` [Citral dimethyl acetal], the MIC in series [1] (setting [5]) came out at 198 µg/mL (≈ 998 µM). Besides, the “MIC (ppm)” value in series [1] (setting [6]) is 198 ppm. Further, the “tubes supporting yeast growth, comparison with control FIG. 1” value in series [2] (setting [7]) and in series [2] (setting [8]) was “very substantially fewer tubes supporting yeast growth” each time. Also, the “tubes supporting yeast growth, comparison with control FIG. 11” value in series [3] (setting [7]) and in series [3] (setting [8]) was “very substantially fewer tubes supporting yeast growth” throughout.
As for `CC(C)=CCCC(C)=CC=O` [Citral], in series [1] (setting [5]), the MIC was determined as 228 µg/mL (≈ 1500 µM). For the same compound, the “MIC (ppm)” value in series [1] (setting [6]) stood at 228 ppm. Also, the “tubes supporting yeast growth, comparison with control FIG. 1” value in series [2] (setting [8]) is “very substantially fewer tubes supporting yeast growth”. Besides, the “tubes supporting yeast growth, comparison with control FIG. 11” value in series [3] (setting [8]) is reported as “very substantially fewer tubes supporting yeast growth”.
Regarding `CC(C)=CCCC(C)CCO` (stereo not drawn) [Citronellol], the MIC in series [1] (setting [5]) was determined as 125 µg/mL (≈ 800 µM).
`CC(C)c1ccc(CO)cc1` [Cumic alcohol]: the “MIC (ppm)” value in series [1] (setting [9]) and in series [1] (setting [6]) was 450 ppm in each case. The “tubes supporting yeast growth, comparison with control FIG. 1” value in series [2] (setting [7]) and in series [2] (setting [8]) was “very substantially fewer tubes supporting yeast growth” each time. Further, the “tubes supporting yeast growth, comparison with control FIG. 11” value in series [3] (setting [7]) and in series [3] (setting [8]) was “very substantially fewer tubes supporting yeast growth” throughout.
As for `O=C(O)CCCC1CCCCC1` [Cyclohexanebutyric acid], the MIC in series [1] (setting [5]) stood at 68 µg/mL (≈ 399 µM).
For the compound `COC(=O)OC(=O)OC` [DMDC, Dimethyl dicarbonate], the “efficacy against mould contamination” value in the series with mould was “inefficient”. The “break down in aqueous environments” value in series [4] is given as “breaks down rapidly”.
As for `CCCCCCCCCC=O` [Decanal], the MIC in series [1] (setting [5]) was 47 µg/mL (≈ 301 µM).
Still for that read-out and setting: the same measure for `CCCCCCCCCCO` [Decanol]: 24 µg/mL (≈ 152 µM).
In the case of `C=C(C)C1CCC(C)C(O)C1` (stereo not drawn) [Dihydrocarveol], in series [1] (setting [9]), the “MIC (ppm)” value is listed as 540 ppm.
Turning to `CCOC(=O)CCC1CCCCC1` [Ethyl cyclohexanepropionate], in series [1] (setting [5]), the MIC was found to be 184 µg/mL (≈ 998 µM).
`CCOC(=O)C(C)=O` [Ethyl pyruvate]: the MIC in series [1] (setting [5]) amounted to 1390 µg/mL (≈ 12000 µM). Further, the “MIC (ppm)” value in series [1] (setting [6]) came to 1392 ppm.
In the case of `CC/C=C\CC1=C(C)CCC1=O` [Jasmone], the MIC in series [1] (setting [5]) was 246 µg/mL (≈ 1500 µM).
The same measure, in the same setting: the result for `COC(=O)c1ccccc1N` [Methyl anthranilate] reads 310 µg/mL (≈ 2050 µM).
Still for that read-out and setting: the result for `CCCCCCCCC(=O)OC` [Methyl nonanoate] reads 90 µg/mL (≈ 522 µM).
For `COC(=O)c1ccccc1O` [Methyl salicylate], the MIC in series [1] (setting [5]) stood at 152 µg/mL (≈ 999 µM).
As to `CC1(C)C2CC=C(CO)C1C2` (stereo not drawn) [Myrtenol], the “MIC (ppm)” value in series [1] (setting [9]) and in series [1] (setting [6]) was 137 ppm each time. In addition, the “tubes supporting yeast growth, comparison with control FIG. 1” value in series [2] (setting [8]) is “very substantially fewer tubes supporting yeast growth”. Also, the “tubes supporting yeast growth, comparison with control FIG. 11” value in series [3] (setting [8]) is listed as “very substantially fewer tubes supporting yeast growth”.
On to `CC1CCC(C(C)C)C(O)C1` (stereo not drawn) [Neomenthol], for which the “MIC (ppm)” value in series [1] (setting [9]) worked out at 156 ppm.
On to `CCCCCCCCC(=O)O` [Nonanoic acid], for which the MIC in series [1] (setting [5]) was 63 µg/mL (≈ 398 µM).
On the same count and under the same terms, the result for `CCCCCCCC(=O)O` [Octanoic acid (caprylic), Octanoic acid] reads 115 µg/mL (≈ 797 µM).
The compound `CC(=O)OCc1ccc2c(c1)OCO2` [Piperonyl acetate] yielded an MIC in series [1] of 242 µg/mL. In series [1] (setting [6]), the “MIC (ppm)” value is given as 242 ppm. In addition, the “tubes supporting yeast growth, comparison with control FIG. 1” value in series [2] (setting [8]) is on record as “very substantially fewer tubes supporting yeast growth”. Moreover, in series [3] (setting [8]), the “tubes supporting yeast growth, comparison with control FIG. 11” value is “very substantially fewer tubes supporting yeast growth”.
Turning to `CCCOC(=O)c1ccccc1` [Propyl benzoate], the minimum inhibitory concentration (MIC) in series [1] (setting [5]) amounted to 66 µg/mL (≈ 402 µM).
The same measure, in the same setting: the same measure for `CC(C)=C1CC[C@@H](C)CC1=O` [Pulegone]: 152 µg/mL (≈ 998 µM).
`CC=CC=CC=O` [Sorbic aldehyde (2,4-hexadienal), 2,4-hexadienal]: the MIC in series [1] (setting [5]) was found to be 86 µg/mL (≈ 895 µM).
Same read-out and setting: the same measure for `CC1=CCC(O)(C(C)C)CC1` (stereo not drawn) [Terpinen-4-ol]: 616 µg/mL (≈ 3990 µM); for `CCCCCCCCCCC=O` [Undecanal]: 34 µg/mL (≈ 200 µM).
Same read-out and setting: the same measure for `COc1cc(C=O)ccc1O` [Vanillin]: 1220 µg/mL (≈ 7990 µM); for `COc1ccccc1C=CC=O` [o-Methoxycinnamaldehyde]: 130 µg/mL (≈ 802 µM).
Turning to `CCCCC/C=C/C=C/C=O` [trans, trans-2,4-Decadienal], the MIC in series [1] (setting [5]) came out at 8 µg/mL (≈ 52.5 µM). Also, in series [1] (setting [6]), the “MIC (ppm)” value is reported as 8 ppm. In addition, the “tubes supporting yeast growth, comparison with control FIG. 1” value in series [2] (15 ppm essential oil component) is on record as “very substantially fewer tubes supporting yeast growth”. Moreover, the “tubes supporting yeast growth, comparison with control FIG. 11” value in series [3] (15 ppm essential oil component) was “very substantially fewer tubes supporting yeast growth”.
With `C/C(C=O)=C\c1ccccc1` [α-Methyl-trans-cinnamaldehyde], in series [1] (setting [9]), the “MIC (ppm)” value is listed as 58.4 ppm.
The same measure, in the same setting: the same measure for `CCCCCC1CCC(=O)O1` (stereo not drawn) [γ-Nonanoic lactone]: 63 ppm.
The same measure, in the same setting: the same measure for `CCCCCCCC1CCC(=O)O1` (stereo not drawn) [γ-Undecalactone]: 28 ppm; for `CCCC1CCCC(=O)O1` (stereo not drawn) [δ-Octalactone]: 568 ppm; for Tolualdehyde: 240 ppm.
